Measurements from patent US8969394B2, “Thiophenecarboxamide derivatives as EP4 receptor ligands” (Merck Frosst Canada Ltd., priority 2006, dated 2015).

Biological target: EP4 receptor (Homo sapiens (Human), UniProt P35408)
Experiment: Prostanoid receptor binding assay, hEP4 (membranes of transfected HEK 293(ebna) cells)
Details: radioligand binding, HEK 293(ebna) membranes, 10 mM MES/KOH pH 6.0
Procedure: Prostanoid receptor cDNAs corresponding to full length coding sequences are subcloned into the appropriate sites of mammalian expression vectors and transfected into HEK 293(ebna) cells. HEK 293(ebna) cells expressing the individual cDNAs are grown under selection and individual colonies are isolated after 2-3 weeks of growth using the cloning ring method and subsequently expanded into clonal cell lines.
Transfected HEK 293(ebna) cells are maintained in culture, harvested and membranes are prepared by differential centrifugation, following lysis of the cells in the presence of protease inhibitors, for use in receptor binding assays. Prostanoid receptor binding assays (for DP1, DP2 (CRTH2), EP1, EP2, EP3-III, EP4, FP, IP, and TP) are performed in 10 mM MES/KOH (pH 6.0) (EPs, FP and TP) or 10 mM HEPES/KOH (pH 7.4) (DPs and IP), containing 1 mM EDTA, 2.5-30 mM divalent cation and the appropriate radioligand. Synthetic compounds are added in dimethylsulfoxide which is kept constant at 1% (v/v) in all incubations. The reaction is initiated by addition of membrane protein. Non-specific binding is determined in the presence of 10 μM of the corresponding non-radioactive prostanoid. Incubations are conducted for 60-90 min at room temperature or 30° C. and terminated by rapid filtration. Specific binding is calculated by subtracting non specific binding from total binding. The residual specific binding at each ligand concentration is calculated and expressed as a function of ligand concentration in order to construct sigmoidal concentration-response curves. The binding affinity of the compounds is determined by calculating the equilibrium inhibition constant (Ki) from the equation Ki=InPt/1+[radioligand]/Kd where Kd is the equilibrium dissociation constant for the radioligand:receptor interaction and InPt is the inflection point of the dose-response curves.

EP4 receptor, sequence (P35408 whole entry): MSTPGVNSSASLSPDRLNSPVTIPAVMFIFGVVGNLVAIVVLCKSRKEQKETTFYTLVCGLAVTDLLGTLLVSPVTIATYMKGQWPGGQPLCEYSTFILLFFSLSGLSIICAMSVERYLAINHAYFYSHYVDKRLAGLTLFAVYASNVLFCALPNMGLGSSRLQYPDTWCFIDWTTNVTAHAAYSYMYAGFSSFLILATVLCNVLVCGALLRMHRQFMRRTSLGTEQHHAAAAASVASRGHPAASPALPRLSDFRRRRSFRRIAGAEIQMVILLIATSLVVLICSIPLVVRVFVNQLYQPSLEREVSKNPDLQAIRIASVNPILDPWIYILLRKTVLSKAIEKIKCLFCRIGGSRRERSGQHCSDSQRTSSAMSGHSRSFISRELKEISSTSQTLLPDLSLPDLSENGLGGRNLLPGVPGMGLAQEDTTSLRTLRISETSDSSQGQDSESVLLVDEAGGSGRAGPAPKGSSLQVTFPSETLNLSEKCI

Row | Ki [nM] | Compound
1 | 2.4 ± 0.2 | Cc1sc(C)c(C(=O)N[C@@H](C)c2ccc(C(=O)O)cc2)c1Cc1cccc(C(F)(F)F)c1 [Example 24, 4-{(1S)-1-[({2,5-dimethyl-4-[3-(trifluoromethyl)benzyl]-3-thienyl}carbonyl)-amino]ethyl}benzoic acid]
2 | 124 | COC(=O)c1ccc([C@H](C)NC(=O)c2c(Cl)sc(Cl)c2Cc2cccc(Cl)c2)cc1 [Example 6, methyl 4-[(1S)-1-({[2,5-dichloro-4-(3-chlorobenzyl)-3-thienyl]carbonyl}amino)ethyl]benzoate]
3 | 0.7 ± 0.2 | Cc1sc(C)c(C(=O)NC2(c3ccc(-c4nn[nH]n4)cc3)CC2)c1Cc1cccc(C(F)(F)F)c1 [Example 26, 2,5-dimethyl-N-{1-[4-(2H-tetrazol-5-yl)phenyl]cyclopropyl}-4-[3-(trifluoromethyl)benzyl]thiophene-3-carboxamide]
4 | 2.6 ± 0.6 | CC(NC(=O)c1sc(Cl)cc1Cc1cccc(Cl)c1)c1ccc(-c2nn[nH]n2)cc1 (stereo not drawn) [Example 2, 5-chloro-3-(3-chlorobenzyl)-N-{1-[4-(1H-tetrazol-5-yl)phenyl]ethyl}-thiophene-2-carboxamide]
5 | 51 | C[C@H](NC(=O)c1c(Cl)sc(Cl)c1C(OC1CCCCO1)c1cccc(Cl)c1)c1ccc(C(=O)O)cc1 (stereo partly drawn) [Example 8]
6 | 5.2 ± 1.1 | CC(NC(=O)c1sc(Cl)cc1Cc1cccc(Cl)c1)c1ccc(C(=O)O)cc1 (stereo not drawn) [Example 1, 4-[1-({[5-chloro-3-(3-chlorobenzyl)-2-thienyl]carbonyl}amino)ethyl]-benzoic acid]
7 | 0.8 ± 0.2 | C[C@H](NC(=O)c1c(Cl)sc(Cl)c1Cc1cccc(C(F)(F)F)c1)c1ccc(C(=O)O)cc1 [Example 21, 4-{(1S)-1-[({2,5-dichloro-4-[3-(trifluoromethyl)benzyl]-3-thienyl}carbonyl)-amino]ethyl}benzoic acid]
8 | 0.47 ± 0.01 | C[C@H](NC(=O)c1c(Br)sc(Br)c1Cc1cccc(Cl)c1)c1ccc(C(=O)O)cc1 [Example 5, 4-[(1S)-1-({[2,5-dibromo-4-(3-chlorobenzyl)-3-thienyl]carbonyl}amino)ethyl]benzoic acid]
9 | 0.9 ± 0.1 | O=C(O)c1ccc(CNC(=O)c2c(Cl)sc(Cl)c2Cc2cccc(Cl)c2)cc1 [Example 22, 4-[({[2,5-dichloro-4-(3-chlorobenzyl)-3-thienyl]carbonyl}amino)-methyl]benzoic acid]
10 | 0.9 ± 0.2 | C[C@@H](NC(=O)c1c(Cl)sc(Cl)c1Cc1cccc(Cl)c1)c1ccc(C(=O)O)cc1 [Example 20, 4-[(1R)-1-({[2,5-dichloro-4-(3-chlorobenzyl)-3-thienyl]carbonyl}amino)-ethyl]benzoic acid]
11 | 133 | Cc1sc(C)c(C(=O)N[C@@H](C)c2ccc(C(=O)NS(=O)(=O)c3ccccc3)cc2)c1Cc1ccc(C(F)(F)F)cc1 [Example 19, 2,5-dimethyl-N-[(1S)-1-(4-{[(phenylsulfonyl)amino]carbonyl}phenyl)ethyl]-4-[4-(trifluoromethyl)benzyl]thiophene-3-carboxamide]
12 | 0.5 ± 0.1 | Cc1sc(C)c(C(=O)NC2(c3ccc(C(=O)O)cc3)CC2)c1Cc1ccc(C(F)(F)F)cc1 [Example 16, 4-{1-[({2,5-dimethyl-4-[4-(trifluoromethyl)benzyl]-3-thienyl}carbonyl)amino]cyclopropyl}benzoic acid]
13 | 7.9 ± 0.6 | C[C@H](NC(=O)c1cscc1Cc1cccc(Cl)c1)c1ccc(C(=O)O)cc1 [Example 3, 4-[(1S)-1-({[4-(3-chlorobenzyl)-3-thienyl]carbonyl}amino)ethyl]benzoic acid]
14 | 1.8 | C[C@H](NC(=O)c1c(Cl)sc(Cl)c1C(O)c1cccc(Cl)c1)c1ccc(C(=O)O)cc1 (stereo partly drawn) [Example 9, 4-{(1S)-1-[({2,5-dichloro-4-[(3-chlorophenyl)(hydroxy)methyl]-3-thienyl}carbonyl)amino]ethyl}benzoic acid]
15 | 30 | Cc1sc(C)c(C(=O)NCc2ccc(C(=O)O)c(Cl)c2)c1Cc1cccc(Cl)c1 [Example 25, 2-chloro-4-[({[4-(3-chlorobenzyl)-2,5-dimethyl-3-thienyl]carbonyl}amino)-methyl]benzoic acid]
16 | 1.4 ± 0.4 | Cc1sc(C)c(C(=O)N[C@@H](C)c2ccc(C(=O)O)cc2)c1Cc1ccc(C(F)(F)F)cc1 [Example 12, 4-{(1S)-1-[({2,5-dimethyl-4-[4-(trifluoromethyl)benzyl]-3-thienyl}carbonyl)amino]ethyl}benzoic acid]
17 | 0.8 ± 0.2 | Cc1sc(C)c(C(=O)NC2(c3ccc(C(=O)O)cc3)CC2)c1Cc1cccc(C(F)(F)F)c1 [Example 28, 4-{1-[({2,5-dimethyl-4-[3-(trifluoromethyl)benzyl]-3-thienyl}carbonyl)-amino]cyclopropyl}benzoic acid]
18 | 0.6 ± 0.1 | Cc1sc(C)c(C(=O)NC2(c3ccc(-c4nn[nH]n4)cc3)CC2)c1Cc1ccc(C(F)(F)F)cc1 [Example 14, 2,5-dimethyl-N-{1-[4-(2H-tetrazol-5-yl)phenyl]cyclopropyl}-4-[4-(trifluoromethyl)benzyl]thiophene-3-carboxamide]
19 | 3.1 ± 0.4 | Cc1sc(C)c(C(=O)N[C@@H](C)c2ccc(C(=O)O)cc2)c1Cc1cccc(Cl)c1 [Example 23, 4-[(1S)-1-({[4-(3-chlorobenzyl)-2,5-dimethyl-3-thienyl]carbonyl}amino)-ethyl]benzoic acid]
20 | 0.71 ± 0.01 | C[C@H](NC(=O)c1csc(Br)c1Cc1cccc(Cl)c1)c1ccc(C(=O)O)cc1 [Example 4, 4-[(1S)-1-({[5-bromo-4-(3-chlorobenzyl)-3-thienyl]carbonyl}amino)ethyl]benzoic acid]
21 | 7.4 ± 1.3 | C[C@H](NC(=O)c1c(Cl)sc(Cl)c1C(=O)c1cccc(Cl)c1)c1ccc(C(=O)O)cc1 [Example 10, 4-[(1S)-1-({[2,5-dichloro-4-(3-chlorobenzoyl)-3-thienyl]carbonyl}amino)ethyl]benzoic acid]
22 | 1.3 ± 0.6 | C[C@H](NC(=O)c1c(Cl)sc(Cl)c1Cc1cccc(Cl)c1)c1ccc(C(=O)O)cc1 [Example 7, 4-[(1S)-1-({[2,5-dichloro-4-(3-chlorobenzyl)-3-thienyl]carbonyl}amino)ethyl]benzoic acid]
23 | 3.4 ± 0.2 | Cc1sc(C)c(C(=O)N[C@@H](C)c2ccc(C(=O)O)cc2)c1Cc1ccc(Cl)cc1 [Example 30, 4-[(1S)-1-({[4-(4-chlorobenzyl)-2,5-dimethyl-3-thienyl]carbonyl}amino)-ethyl]benzoic acid]
24 | 308 | Cc1sc(C)c(C(=O)N[C@@H](C)c2ccc(C(=O)NS(C)(=O)=O)cc2)c1Cc1ccc(C(F)(F)F)cc1 [Example 18, 2,5-dimethyl-N-[(1S)-1-(4-{[(methylsulfonyl)amino]carbonyl}phenyl)ethyl]-4-[4-(trifluoromethyl)benzyl]thiophene-3-carboxamide]
